What was measured:
Type in all cases: in vivo
IL-4, IL-5, and IL-13 = assay: Cytokines in bronchoalveolar lavage fluid by ELISA, asthma-induced mice
Description: (§1) Eight-week-old female […] mice (Orient Bio Korea Inc., Korea) having no certain pathogen were accommodated in an aseptic laminar-flow cabinet, and bred by supplying a standard solid feed ad libitum. When the following experiment was performed, the mice were made to correspond to 7- to 8-weeks old, and all laboratory animals were managed according to the protocol approved by the Institutional Animal Care and Use Committee of the Chonbuk National University Medical School.
(§2) Also, on days 21 and 28 from the experimental starting date, the mice were put into a plastic box (Plexiglas (Rohm & Haas, Philadelphia, Pa.) exposure chamber; 24.5 cm×40.5 cm×15.0 cm), and 1.5% ovalbumin was evaporated using an ultrasonic nebulizer (NE-U12; output 0.8 mL/min; Omron, Japan), and injected into the box for 30 minutes so that the mice inhaled the evaporated ovalbumin (secondary challenge).
After the mice were anesthetized, a thin tube was inserted into the airway, and a piston process was repeated using a syringe filled with 0.2 mL of physiological saline to obtain a bronchoalveolar lavage fluid. The bronchoalveolar lavage fluid obtained through this piston process was stored at −70° C. when it was not immediately used in the experiments.
A level of cytokines in the bronchoalveolar lavage fluid obtained in Experimental Method 2 was measured using an ELISA kit. Here, ELISA kits specifically manufactured for TNF-α, IL-4, IL-5, and IL-13 were used.
Preparation Example 3 (α,δ-NA-L-G) or α,δ N-acetyl-D-glutamine was orally administered to the asthma-induced mice of Experimental Method 1 at a concentration of 100, 200, 400 or 800 μg/kg/day 30 minutes before a secondary airway challenge, and levels of IL-4, IL-5, and IL-13 were measured through the method described above in Experimental Method 4 24 hours after the secondary challenge. The results are shown in A and B of FIG. 4.

MKP-1 protein = assay: Western blot of MKP-1 protein in lung tissue of asthma-induced mice
Description: as §2
(§3) A tissue was extracted from each of the mice manufactured in Experimental Method 1, and finely ground to a cell level. Thereafter, the cells were lysed in a cell lysis buffer containing a protease inhibitor to obtain a cell lysate. The cell lysate was centrifuged to obtain protein. Then, an equivalent amount of the proteins obtained from the cells were loaded on an SDS-PAGE gel and electrophoresed. The proteins present in the electrophoresed gel were transferred to a PVDF membrane. […] The PVDF membrane was washed three times with a TBS-T buffer, and visualized and quantified using an ECL Western blotting detection reagent. […]
Small interfering RNA (siRNA; hereinafter referred to as “MKP-1 siRNA”) against RNA encoding an MKP-1 protein, and control siRNA strands were purchased from SANTA CRUZ (USA). […] An effect of the MKP-1 siRNA interference was determined by measuring an expression level of the MKP-1 protein in the lung tissue through Western blot analysis. […]

asthma-induced mice = assay: Bronchial hypersensitivity reaction (Rrs value, methacholine), asthma-induced mice; conditions: oral 200 or 400 μg/kg/day 30 minutes before secondary challenge, 48 hours after, methacholine 5.0 to 50 mg/mL, FIG. 5
Description: as §1, §2
45 mg/kg of sodium pentobarbital was intraperitoneally injected into the mice prepared in Experimental Method 1 to anesthetize the mice, and the airways were cut and an 18 gauge needle was inserted into the airways. Thereafter, the needle was connected to a small-sized animal respirator connected to a computer, and the computer system was adjusted to a respiration rate of 150 breaths per minute. Then, methacholine in the form of aerosol was fed at an increasing concentration of 5.0 to 50 mg/mL so that the mice inhaled the methacholine. Then, an airway response was measured, and indicated as an Rrs value.
Preparation Example 3 (α,δ-NA-L-G) or α,δ N-acetyl-D-glutamine was orally administered to the asthma-induced mice of Experimental Method 1 at a concentration of 200 or 400 μg/kg/day 30 minutes before a secondary airway challenge, and the bronchial hypersensitivity reaction was measured 48 hours after the secondary challenge using the method described in Experimental Method 5. The results are shown in A and B of FIG. 5.

CK2α protein = assay: Western blot of CK2α protein in lung of asthma-induced mice
Description: as §2
as §3, with “membrane. The PVDF membrane was washed, and added to a blocking buffer in which 5% skim milk was included in a TBS-T buffer, and incubated at room temperature. Then, the PVDF membrane was incubated at room temperature with an antibody diluted 1:1,000 in a TBS-T buffer containing 3% BSA.” for “membrane.”
Specifically, the secondary challenge (ovalbumin injection) was performed according to the method described above in Experimental Method 1, and the lungs were extracted after an hour, and then measured according to the method described above in Experimental Method 7. […] Also, the level of TNF-α corresponding to an NK-κB-dependent cytokine was measured by ELISA according to the method described above in Experimental Method 4. […]
The secondary challenge (ovalbumin injection) was performed according to the method described above in Experimental Method 1, and the lungs were extracted after 1 or 2 hours, and then measured according to the method described above in Experimental Method 7. […]

In the case of `CC(=O)NC(=O)CC[C@H](NC(C)=O)C(=O)O` [Preparation Example 3, 2,5-diacetamido-5-oxopentanoic acid], the “levels of IL-4, IL-5, and IL-13” value (IL-4, IL-5, and IL-13; asthma-induced mice, oral 200 μg/kg/day 30 minutes before secondary challenge, measured 24 hours after, FIG. 4A) is reported as “remarkably inhibited”, the “expression levels of the cytokines” value (IL-4, IL-5, and IL-13; experiment [5-6], together with siRNA specific to MKP-1, FIG. 13) is reported as “increased” and the “expression levels of the cytokines (IL-4, IL-5, and IL-13)” value (IL-4, IL-5, and IL-13; experiment [5-6], without MKP-1 siRNA, FIG. 13) is reported as “decreased”. The “level of the MKP-1 protein” value (MKP-1 protein; lung tissue, oral daily 200, 500 or 1,000 μg/kg/day, 10 and 30 minutes after secondary challenge, FIG. 7) was “more increased depending on the concentration”, the “level of the MKP-1 protein” value (MKP-1 protein; with MKP-1 siRNA treatment, same conditions as [5-1], FIG. 8) was “did not increase” and the “Rrs value (bronchial hypersensitivity reaction)” value (asthma-induced mice) was “remarkably inhibited”. The “effect for reducing the level of CK2α” value (CK2α protein; 400 μg/kg/day with siRNA specific to MKP-1, FIG. 9) was “not observed” and the “level of the CK2α protein” value (CK2α protein; oral daily 400 μg/kg/day, lungs extracted an hour after secondary challenge, FIG. 9A) was “decreased”.

Reference: patent US20230026277A1, “COMPOSITION FOR PREVENTION, ALLEVIATION, OR TREATMENT OF RESPIRATORY DISEASE” (MICROX CO., LTD., priority 2019, published 2023)
